# Results as given in US10183011B2, “Anti-depression compounds” (Board of Regents of the University of Texas System, priority 2009, dated 2019).
# Entries after “also recorded” stand apart in the source; their conditions may differ.
# Tests used:
# [1] = system: dopaminergic neurons in C. elegans; assay: MPP+ toxicity to dopaminergic neurons in C. elegans; format: in vivo; details: for protection of dopaminergic neurons from MPP+: 10 μM, 5 mM MPP+ for 40 hrs
# Experimental: FIG. 31. Neuroprotective efficacy of P7C3 and P7C3A20 for MPP^+ toxicity to dopaminergic neurons in C. elegans. Worms were treated with 5 mM MPP^+ for 40 hrs, with pre-incubation for 30 minutes with different concentrations of test compounds or vehicle. […] By contrast, GFP expression was lost after 40 hrs of MPP^+ exposure (unfilled arrow). […] 20 worms were analyzed per group, and each group was performed in triplicate. Data are expressed as mean±SEM.
# Genes, metabolic signaling pathways, neurotransmitters and receptor pharmacology are highly conserved between C. elegans and vertebrates, and exposure of C. elegans to MPP^+ has been reported to selectively kill dopaminergic neurons and impair mobility. To investigate the neuroprotective efficacy of P7C3A20, P7C3 and Dimebon from MPP^+ toxicity in C. elegans, we monitored dopaminergic cell death in a transgenic strain of worms in which dopaminergic neurons fluoresce green by virtue of GFP expression driven by the dopaminergic neuron-specific promoter dat-1. […] Cephalic sensilla dopaminergic dendrites were observed under 40× magnification (AMG, Evos fl microscope), and GFP signal was followed from the nerve ring to the tip of the nose, following established protocols. If any part of a dendrite was absent, as evidenced by loss of GFP signal, it was counted as degraded. All analyses were performed blind to treatment group.
# Synchronized L1 larvae were plated into each well of a 12-well plate (approximately 400 larvae per well) containing PBS, Vehicle or compounds, with or without 5 mM MPP^+ iodide (Sigma) freshly diluted in PBS. DMSO was used as vehicle (VEH) and the concentration in treatment groups was maintained below 1%. The assay solution ([…]) was incubated for 40 hrs at 20 degrees Celsius. The worms were then washed in dH2O and supernatant was aspirated. To examine dopaminergic neuron toxicity, worms were anesthetized (0.1% tricaine, 0.01% tetramizole) for 5 min and then transferred to microscope slides and coverslipped. Pictures were taken at 40× magnification (AMG, Evos fl microscope). Each experiment was conducted in triplicate with 10-20 worms counted per condition. For quantification, investigators were blind to treatment condition. Quantification was done by observing all four cephalic sensilla (CEP) dendrites, per standard protocol. Briefly, GFP fluorescence was visualized from the nerve ring to the tip of the nose, and if any portion of a dendrite was absent then it was counted as being degenerated.
# [2] = Plasma, brain and spinal cord levels in G93A-SOD1 study (LC/MS/MS); format: in vivo, mouse; details: 20 mg/kg/day for 21 days; for spinal cord accumulation relative to other compound: six hours after last injection
# Experimental: FIG. 37. Plasma, brain and spinal cord levels of P7C3A20, P7C3 and Dimebon. Five mice for each compound group were treated for 21 days with 20 mg/kg/day of the compound, starting on day 85. Blood, brain and spinal cord were harvested six hours after the last injection and compound levels were measured by LC/MS/MS. Concentrations are presented as mean±SEM.
# U2OS cells = assay: Calcium ionophore A23187-induced loss of mitochondrial membrane potential (TMRM dye release); format: cell-based
# Text: FIG. 22A, FIG. 22B, FIG. 22C, FIG. 22D, FIG. 22E and FIG. 22F: Example 45 Compound Preserves Mitochondrial Membrane Potential in Parallel to Proneurogenic Activity U2OS cells were loaded with tetramethylrhodamine methyl ester (TMRM) dye and then exposed to the calcium ionophore A23187 either in the presence or absence of test compounds. Example 45 Compound (FIG. 22A) preserved mitochondrial membrane potential following exposure to the calcium ionophore A23187 in a dose-dependent manner. The protective effect of P7C3 was enantiomeric specific. […] Each compound was evaluated in triplicate with similar results.
# Extensive evidence pioneered by the laboratory of Xiaodong Wang has shown that an intrinsic pathway leading to programmed cell death emanates from mitochondria (Liu et al., Cell 1996, 86, 147-157; Yang et al., Science 1997, 275, 1129-1132). With the help of the Wang lab, assays were established to test whether Example 45 Compound might protect mitochondria from calcium-induced dissolution (Distelmaier et al., Cytometry A 2008, 73, 129-138). Tetramethylrhodamine methyl ester (TMRM) is a cell-permeant, cationic red-orange fluorescent dye that is readily sequestered by active mitochondria. When loaded with TMRM dye, vehicle-only treated cells released the dye within 15 minutes of exposure to the calcium ionophore A23187. By contrast, dye release was prevented in cells exposed to as little as […] of Example 45 Compound (FIG. 18A).
# Since P7C3 ameliorates the death of newborn neurons in the dentate gyrus in living mice, it is possible that its function might relate to mitochondrial integrity. Assays were established to test whether P7C3 might protect cultured U2OS cells from calcium-induced mitochondrial dissolution (Distelmaier et al., Cytometry A 2008, 73, 129-138). Tetramethylrhodamine methylester (TMRM) dye is sequestered by active mitochondria, and, when loaded with TMRM, vehicle-treated cells released the dye within 15 rain of exposure to the calcium ionophor A23 187.
SMILES,protection of dopaminergic neurons from MPP+ [1],entry into brain and spinal cord [2],spinal cord accumulation relative to other compound [2],lowest amount that prevented TMRM dye release (U2OS cells) [ng],preservation of mitochondrial membrane potential (U2OS cells; TMRM dye),onset of neuroprotective efficacy ([1]; 0.1 μM) [%],lowest concentration that blocked TMRM dye release (U2OS cells; U2OS cells) [nM],onset of neuroprotective efficacy ([1]; 1.0 μM) [%]
"Cc1ccc2c(c1)c1c(n2CCc2ccc(C)nc2)CCN(C)C1 [Dimebon, 2,3,4,5-Tetrahydro-2,8-dimethyl-5-(2-(6-methyl-3-pyridyl)ethyl)-1H-pyrido(4,3-b)indole, reference compound]",failed to protect dopaminergic neurons,able to enter both the brain and spinal cord,comparable levels of spinal cord accumulation to P7C3A20,,,,,
OC(CNc1ccccc1)Cn1c2ccc(Br)cc2c2cc(Br)ccc21 (stereo not shown) [Example 45 Compound],,,,≤ 10,,,,
"COc1cccc(NCC(F)Cn2c3ccc(Br)cc3c3cc(Br)ccc32)c1 (stereo not shown) [Example P7C3A20, N-(3-(3,6-dibromo-9H-carbazol-9-yl)-2-fluoropropyl)-3-methoxyaniline]",80%,able to enter both the brain and spinal cord,less than one-twentieth the concentration of P7C3,,protection of mitochondrial membrane permeability was observed at an enhanced level; also recorded: exhibited dye release protection at all doses tested,30,,
OC(CNc1ccccc1)Cn1c2ccc(Br)cc2c2cc(Br)ccc21 (stereo not shown) [Example P7C3],about 50%,able to enter both the brain and spinal cord,,,,,≤ 10,35
